≈ marks a conversion by molar mass, not a printed value. Bridge positions count the residues as written; N and C are the ends. Square brackets hold non-standard residues; d marks the D form. Peptide text beside a SMILES is read from it. I, II: the chains in the order shown. Ahx = NCCCCCC(=O)O
What was measured:
MCF-7 cell line = test: MTT viability test, MCF-7 cells; format: cell-based, human; conditions: for cytotoxic effect against MCF-7 compared with ^26[M] (in words) / IC50: 24 h; for IC50, cytotoxic effect, MCF-7: 24 h at 37 °C, three independent experiments with n = 4 each; for IC50: human, pH 7.4
Method: (§1) For all cell lines, the medium used was Dulbecco’s Modified Eagle’s Medium (DMEM)/Nutrient Mixture F-12 Ham. For the HTB-132, MCF-7, and MCF-12A lines, the medium was supplemented with 10% fetal bovine serum (SFB), and 1.5 g/L NaHCO3 and NaOH were added up to pH 7.4, amphotericin (200 μg/mL), and 1% penicillin and streptomycin. For the primary culture cells of bovine mammary epithelium and fibroblasts, in addition to the above, hydrocortisone (250 μg/mL) was added. All media were filtered through a 0.22 μm membrane.
(§2) Briefly, the cells were seeded with a complete medium in 96-well plates at a rate of 10,000 cells and 100 µL per well, and adhesion to the plates was allowed for 24 h. Subsequently, the complete medium was removed and an incomplete medium was added for synchronization for another 24 h. The cells were then incubated at 37 °C for 2, 24, or 48 h with 100 μL of peptide at the concentrations to be evaluated (200, 100, 50, 25, 12.5, 6.25 and 3.1 μg/mL). Next, the peptide was removed from the box, and 100 µL of incomplete medium with 10% 3-4,5-dimethylthiazol-2-yl-2,5-diphenyltetrazole (MTT) bromide was added and incubated for 4 h. The medium was replaced with 100 μL of isopropanol (IPA), and after 30 min of incubation at 37 °C, the absorbance was measured at 575 nm. As a negative control, an incomplete culture medium with 10% MTT was used, and as a positive control, cells without MTT treatment were used.

HTB-132 cell line = test: MTT viability test, HTB-132 cells; format: cell-based, human; conditions: for cytotoxic effect against HTB-132 compared with ^26[M] (in words) / IC50, cytotoxic effect, HTB-132: MTT; for cytotoxic effect against HTB-132 compared with ^26[M] (in words) / IC50: 24 h; for IC50, cytotoxic effect, HTB-132: 24 h at 37 °C, mean of n = 3; for IC50: human, pH 7.4
Method: as §1, §2

MCF-12 cell line = format: cell-based, human
Method: as §1, §2

MCF-7 cells = test: Cell morphology and size by inverted microscope; format: cell-based, human; conditions: MCF-7, 90 min of treatment, 37 °C; from 100.27 μm before; average of 100 measurements; Figure 3: 100 µg/mL
Method: Cell morphology was monitored before and after treatment with ^26[L] or ^26[F] at different times, using an inverted microscope coupled to an AxioCam ICc1 camera (Figure 3). The untreated cells had normal morphologic characteristics as polygonal, flattened, and elongated cells with long and defined axons (data not shown). After 5 min of treatment with the peptide, most cells retained their morphology; however, some began to appear rounded and shrunken. After 90 min, the cells treated with the peptide (^26[L] or ^26[F]) took on a rounded shape, and shrinkage was observed, going from an average size of 100.27 μm to 39.38 µm. […] At 24 h of treatment, the appearance of small vacuoles was observed, presumably associated with late apoptosis events. Finally, it was observed that the effect of the peptide was sustained up to 48 h since at that time no recovery of cell morphology was observed.
Figure 3 Micrography of MCF-7 cells treated with peptide ^26[F] at 100 µg/mL. The cells were incubated in the absence (A) or the presence of the peptide at (B) 5 min, (C) 90 min, (D) 240 min, (E) 24 h, and (F) 48 h at 37 °C. The cell size was determined as an average of 100 measurements, using an AxioCam ICc1 camera.

[1] = system: MDA-MB 231 breast cancer cells; conditions: cited from earlier work
Excerpt: (§3) Breast cancer is the most common cancer type diagnosed worldwide. There are 2.1 million cases annually, and 627,000 deaths of women due to this disease were reported in 2018 [5]. […] However, when this motif was modified or included in longer sequences, the cytotoxic effect against human cancer cell lines increased. In ...

[2] = system: MDA-MB 468 breast cancer cells; conditions: cited from earlier work
Excerpt: as §3

Row | Compound | cytotoxic effect against MCF-7 compared with ^26[M] (in words) (MCF-7 cell line; MTT) | IC50, cytotoxic effect, MCF-7 (MCF-7 cell line; MTT) [µg/mL] | IC50 (MCF-7 cell line) [µM] | cytotoxic effect against HTB-132 compared with ^26[M] (in words) (HTB-132 cell line) | IC50, cytotoxic effect, HTB-132 (HTB-132 cell line) [µg/mL] | IC50 (HTB-132 cell line) [µM] | maximum cytotoxic effect, MCF-7 (MCF-7 cell line; MTT, peptide 200 µg/mL, regardless of treatment time (2, 24, 48 h)) [%] | cytotoxic effect against MCF-12 compared with HTB-132 and MCF-7 (in words) (MCF-12 cell line) | IC50, non-tumorigenic cell line MCF-12 (MCF-12 cell line; 24 h) [µg/mL] | average cell size after treatment (MCF-7 cells) [µm] | cytotoxic effect against MDA-MB-231 (in words) [1] | cytotoxic effect against MDA-MB-468 (in words) [2]
1 | CC(C)C[C@H](NC(=O)[C@H](CCCCN)NC(=O)[C@H](CCCCN)NC(=O)[C@H](C)NC(=O)[C@H](CCCNC(=N)N)NC(=O)[C@H](Cc1c[nH]c2ccccc12)NC(=O)[C@H](CCC(N)=O)NC(=O)[C@H](Cc1c[nH]c2ccccc12)NC(=O)[C@H](CCCNC(=N)N)NC(=O)[C@@H](N)CCCNC(=N)N)C(=O)NCC(=O)NCCCC[C@H](NC(=O)CNC(=O)[C@H](CC(C)C)NC(=O)[C@H](CCCCN)NC(=O)[C@H](CCCCN)NC(=O)[C@H](C)NC(=O)[C@H](CCCNC(=N)N)NC(=O)[C@H](Cc1c[nH]c2ccccc12)NC(=O)[C@H](CCC(N)=O)NC(=O)[C@H](Cc1c[nH]c2ccccc12)NC(=O)[C@H](CCCNC(=N)N)NC(=O)[C@@H](N)CCCNC(=N)N)C(=O)NCCCCCC(N)=O [^26[A], (RRWQWRAKKLG)2-K-Ahx] (I: H-RRWQWRAKKLGK[Ahx]-NH2 / II: H-RRWQWRAKKLG; amide I:12-II:C) | greater cytotoxic effect against MCF-7 cells than the peptide | > 200 | > 60 |  |  |  |  |  |  |  |  | 
2 | CC(C)C[C@H](NC(=O)[C@H](CCCCN)NC(=O)[C@H](CCCCN)NC(=O)[C@H](CC(=O)O)NC(=O)[C@H](CCCNC(=N)N)NC(=O)[C@H](Cc1c[nH]c2ccccc12)NC(=O)[C@H](CCC(N)=O)NC(=O)[C@H](Cc1c[nH]c2ccccc12)NC(=O)[C@H](CCCNC(=N)N)NC(=O)[C@@H](N)CCCNC(=N)N)C(=O)NCC(=O)NCCCC[C@H](NC(=O)CNC(=O)[C@H](CC(C)C)NC(=O)[C@H](CCCCN)NC(=O)[C@H](CCCCN)NC(=O)[C@H](CC(=O)O)NC(=O)[C@H](CCCNC(=N)N)NC(=O)[C@H](Cc1c[nH]c2ccccc12)NC(=O)[C@H](CCC(N)=O)NC(=O)[C@H](Cc1c[nH]c2ccccc12)NC(=O)[C@H](CCCNC(=N)N)NC(=O)[C@@H](N)CCCNC(=N)N)C(=O)NCCCCCC(N)=O [^26[D], (RRWQWRDKKLG)2-K-Ahx] (I: H-RRWQWRDKKLGK[Ahx]-NH2 / II: H-RRWQWRDKKLG; amide I:12-II:C) |  |  |  | lower cytotoxic effect against HTB-132 cells than the original dimeric peptide | > 200 | > 60 |  |  |  |  |  | 
3 | CC(C)C[C@H](NC(=O)[C@H](CCCCN)NC(=O)[C@H](CCCCN)NC(=O)[C@H](CCCCN)NC(=O)[C@H](CCCNC(=N)N)NC(=O)[C@H](Cc1c[nH]c2ccccc12)NC(=O)[C@H](CCC(N)=O)NC(=O)[C@H](Cc1c[nH]c2ccccc12)NC(=O)[C@H](CCCNC(=N)N)NC(=O)[C@@H](N)CCCNC(=N)N)C(=O)NCC(=O)NCCCC[C@H](NC(=O)CNC(=O)[C@H](CC(C)C)NC(=O)[C@H](CCCCN)NC(=O)[C@H](CCCCN)NC(=O)[C@H](CCCCN)NC(=O)[C@H](CCCNC(=N)N)NC(=O)[C@H](Cc1c[nH]c2ccccc12)NC(=O)[C@H](CCC(N)=O)NC(=O)[C@H](Cc1c[nH]c2ccccc12)NC(=O)[C@H](CCCNC(=N)N)NC(=O)[C@@H](N)CCCNC(=N)N)C(=O)NCCCCCC(N)=O [^26[K], (RRWQWRKKKLG)2-K-Ahx] (I: H-RRWQWRKKKLGK[Ahx]-NH2 / II: H-RRWQWRKKKLG; amide I:12-II:C) |  |  |  | lower cytotoxic effect against HTB-132 cells than the original dimeric peptide | > 200 | > 60 |  |  |  |  |  | 
4 | CC(C)C[C@H](NC(=O)[C@H](CCCCN)NC(=O)[C@H](CCCCN)NC(=O)[C@H](CC(C)C)NC(=O)[C@H](CCCNC(=N)N)NC(=O)[C@H](Cc1c[nH]c2ccccc12)NC(=O)[C@H](CCC(N)=O)NC(=O)[C@H](Cc1c[nH]c2ccccc12)NC(=O)[C@H](CCCNC(=N)N)NC(=O)[C@@H](N)CCCNC(=N)N)C(=O)NCC(=O)NCCCC[C@H](NC(=O)CNC(=O)[C@H](CC(C)C)NC(=O)[C@H](CCCCN)NC(=O)[C@H](CCCCN)NC(=O)[C@H](CC(C)C)NC(=O)[C@H](CCCNC(=N)N)NC(=O)[C@H](Cc1c[nH]c2ccccc12)NC(=O)[C@H](CCC(N)=O)NC(=O)[C@H](Cc1c[nH]c2ccccc12)NC(=O)[C@H](CCCNC(=N)N)NC(=O)[C@@H](N)CCCNC(=N)N)C(=O)NCCCCCC(N)=O [^26[L], (RRWQWRLKKLG)2-K-Ahx] (I: H-RRWQWRLKKLGK[Ahx]-NH2 / II: H-RRWQWRLKKLG; amide I:12-II:C) | greater cytotoxic effect against MCF-7 cells than the peptide | 66 (≈ 20.1 µM) | 20 | greater cytotoxic effect against cancer cells than the original peptide | 32 (≈ 9.77 µM) | 10 | ~85 | lower cytotoxic effect against MCF-12 cells than against breast cancer cell lines | > 100 | 39.38 |  | 
5 | RRWQWR [minimal motif peptide of LfcinB, reference compound] |  |  |  |  |  |  |  |  |  |  | low cytotoxic effect | low cytotoxic effect

Source: publication PMC7352952, “Peptides Derived from (RRWQWRMKKLG)2-K-Ahx Induce Selective Cellular Death in Breast Cancer Cell Lines through Apoptotic Pathway” (International Journal of Molecular Sciences, 2020)
